How the values were obtained:
[1] = CC50 MT4 cytotoxicity (Cell-Titer Glo); type: cell-based; settings: human
In short: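 Uninfected MT-4 and HEp-2 cells cultured 4-5 days at 37° C with 3-fold serially diluted compound (15 nM to 100,000 nM). Viability read by Cell-Titer Glo luminescence; untreated and 2 μM puromycin wells set 100% and 0%. CC50 from non-linear regression as concentration reducing viability by 50%.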

[2] = physchem
[3] = test system: Respiratory syncytial virus recombinant with luciferase (RSV-Luc5) in HEp-2 cells; assay: microbe, parasite or virus in culture; type: cell-based; settings: human respiratory syncytial virus, HEp-2, read-out: EC50 RSVFluc-Hep2 384 V2
[4] = test system: Respiratory syncytial virus recombinant with luciferase (RSV-Luc5) in Normal Human Bronchial Epithelial (NHBE) cells; assay: microbe, parasite or virus in culture; type: cell-based; settings: read-out: EC50 RSVFluc-NHBE 384 V2
[5] = test system: SARS Coronavirus 2 recombinant with NanoLuc (SARS-CoV2-NLuc) in A549-hACE2 cells; assay: microbe, parasite or virus in culture; type: cell-based; settings: A549; read-out: EC50 SARS CoV2 NanoLuc A549 384
[6] = GI S9 stability - no PMSF; type: in vitro ADME; parameters: GIS9-HUMAN-NoPMSF T1/2: unit: min; settings: human intestinal S9, PMSF-free; for half-life at 2 µM: pH 7.4, read-out: GIS9-HUMAN-NoPMSF T1/2
In short: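 Compounds were incubated at 2 μM with PMSF-free intestinal S9 (1 mg/mL protein) in 100 mM PBS, pH 7.4, sampling at 6 time points over 120 min. Parent disappearance and formation of the nucleoside metabolite Reference Compound A were quantified by LC-MS (Q-Exactive) using analyte/internal standard peak area ratios.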

[7] = Plasma stability; type: in vitro ADME; parameters: unit not given here; settings: 37° C., 2 μM substrate
In short: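 Reaction mixture was sampled at 0.05, 0.5, 1, 2, 3 and 4 hr into quench solution containing internal standard, then centrifuged and diluted with water. Remaining analyte was measured by LC-MS on a Q-Exactive using a formic acid/acetonitrile gradient, with 5 ppm mass tolerance.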

[8] = test system: Caco-2 cells (clone C2BBe1); assay: CACO-2 permeability; type: in vitro ADME; parameters: unit not given here; settings: for DM Caco2 A to B: apical to basolateral, donor pH 6.5, receiver pH 7.4; for DM Caco2 B to A: basolateral to apical
In short: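 Caco-2 monolayers grown 21 days on collagen-coated transwells and checked for integrity by TEER. Donor buffer was HBSS/HEPES/glucose pH 6.5 with 200 μM BNPP; receiver was pH 7.4 with BSA. Compounds were dosed apically or basolaterally for A-to-B and B-to-A transport, with receiver sampling at 1 and 2 h, LC-MS/MS analysis and percent recovery.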

Structure (SMILES) | CC50 [1] | logD [2] | EC50 [3] | EC50 [4] | EC50 [5] | half-life at 2 µM [6] | STA Human Plasma 37 [7] | DM Caco2 A to B [8] | DM Caco2 B to A [8] | GIS9-HUMAN-NoPMSF T1/2 [6]
N#C[C@@]1(c2ccc3c(N)ncnn23)O[C@H](COC(=O)OCOP(=O)(O)O)[C@@H](O)[C@H]1O [Compound 40, ((2R,3S,4R,5R)-5-(4-aminopyrrolo[2,1-f][1,2,4]triazin-7-yl)-5-cyano-3,4-dihydroaytetrahydrofuran-2-yl)methyl ((phosphonooxy)methyl) carbonate] | > 50 µM | < 0.3 | 3550 nM | 3.69 µM | – | – | – | – | – | –
COC(=O)Nc1ncnn2c([C@]3(C#N)O[C@H](COC(=O)OCC(C)(C)C)[C@@H](OC(=O)OC)[C@H]3OC(=O)OC)ccc12 [Compound 103, methyl (7-((2R,3R,4R,5R)-2-cyano-3,4-bis((methoxycarbonyl)oxy)-5-((((neopentyloxy)carbonyl)oxy)methyl)tetrahydrofuran-2-yl)pyrrolo[2,1-f][1,2,4]triazin-4-yl)carbamate] | > 50 µM | 3.2 | 20700 nM | 17.7 µM | > 50000 nM | – | – | – | – | –
COC1O[C@H]2[C@@H](O1)[C@](C#N)(c1ccc3c(N)ncnn13)O[C@@H]2COC(=O)OC(C)C (stereo partly drawn) [Compound 107, ((3aR,4R,6R,6aR)-6-(4-aminopyrrolo[2,1-f][1,2,4]triazin-7-yl)-6-cyano-2-methoxytetrahydrofuro[3,4-d][1,3]dioxol-4-yl)methyl isopropyl carbonate] | > 50 µM | 2.5 | > 50000 nM | > 50 µM | > 50000 nM | – | – | – | – | –
CC(C)(C)OP(=O)(OCOC(=O)OC[C@H]1O[C@@](C#N)(c2ccc3c(N)ncnn23)[C@H](O)[C@@H]1O)OC(C)(C)C [Compound 110, ((2R,3S,4R,5R)-5-(4-aminopyrrolo[2,1-f][1,2,4]triazin-7-yl)-5-cyano-3,4-dihydroxytetrahydrofuran-2-yl)methyl (((di-tert-butoxyphosphoryl)oxy)methyl) carbonate] | > 50 µM | 1.7 | 10800 nM | 20.4 µM | – | – | – | – | – | –
COc1ccc(CCOC(=O)OC[C@H]2O[C@@](C#N)(c3ccc4c(N)ncnn34)[C@H](O)[C@@H]2O)cc1 [Compound 112, ((2R,3S,4R,5R)-5-(4-aminopyrrolo[2,1-f][1,2,4]triazin-7-yl)-5-cyano-3,4-dihydroxytetrahydrofuran-2-yl)methyl (4-methoxyphenethyl) carbonate] | > 50 µM | 1.8 | 181 nM | 0.454 µM | 2110 nM | 1.77 min | 28.8 | 2.53 | 15.81 | –
CC1(COC(=O)OC[C@H]2O[C@@](C#N)(c3ccc4c(N)ncnn34)[C@H](O)[C@@H]2O)CC1 [Compound 114, ((2R,3S,4R,5R)-5-(4-aminopyrrolo[2,1-f][1,2,4]triazin-7-yl)-5-cyano-3,4-dihydroxytetrahydrofuran-2-yl)methyl ((1-methylcyclopropyl)methyl) carbonate] | > 50 µM | 1.5 | 123 nM | 0.966 µM | 1120 nM | 1.21 min | 26.8 | 2.07 | 11.26 | –
CC1(COC(=O)OC[C@H]2O[C@@](C#N)(c3ccc4c(N)ncnn34)[C@H](O)[C@@H]2O)CCC1 [Compound 122, ((2R,3S,4R,5R)-5-(4-aminopyrrolo[2,1-f][1,2,4]triazin-7-yl)-5-cyano-3,4-dihydroxytetrahydrofuran-2-yl)methyl ((1-methylcyclobutyl)methyl) carbonate] | > 50 µM | 1.9 | 290 nM | 1.04 µM | 707 nM | 0.637 min | 34.1 | – | – | –
N#C[C@@]1(c2ccc3c(N)ncnn23)O[C@H](COC(=O)OCC2CC2)[C@@H](O)[C@H]1O [Compound 125, ((2R,3S,4R,5R)-5-(4-aminopyrrolo[2,1-f][1,2,4]triazin-7-yl)-5-cyano-3,4-dihydroxytetrahydrofuran-2-yl)methyl (cyclopropylmethyl) carbonate] | > 50 µM | 1.1 | 220 nM | 0.645 µM | 1790 nM | 0.582 min | 12.2 | – | – | –
CCCCCCCCCCCCCCCCCCOC(=O)OC[C@H]1O[C@@](C#N)(c2ccc3c(N)ncnn23)[C@H](O)[C@@H]1O [Compound 126, ((2R,3S,4R,5R)-5-(4-aminopyrrolo[2,1-f][1,2,4]triazin-7-yl)-5-cyano-3,4-dihydroxytetrahydrofuran-2-yl)methyl octadecyl carbonate] | 27.7 µM | > 5.7 | – | 0.517 µM | 1610 nM | 97.6 min | 79.1 | 0.01 | 0.03 | –
N#C[C@@]1(c2ccc3c(N)ncnn23)O[C@H](COC(=O)OC23CC(C(F)(F)F)(C2)C3)[C@@H](O)[C@H]1O [Compound 139, [(2R,3S,4R,5R)-5-(4-aminopyrrolo[2,1-f][1,2,4]triazin-7-yl)-5-cyano-3,4-dihydroxy-tetrahydrofuran-2-yl]methyl [3-(trifluoromethyl)-1-bicyclo[1.1.1]pentanyl]carbonate] | > 50 µM | 2.2 | – | 1.64 µM | – | 1.37 min | 150.07 | 0.99 | 12.98 | –
N#C[C@@]1(c2ccc3c(N)ncnn23)O[C@H](COC(=O)OCCCCCC(=O)O)[C@@H](O)[C@H]1O [Compound 140, 6-(((((2R,3S,4R,5R)-5-(4-aminopyrrolo[2,1-f][1,2,4]triazin-7-yl)-5-cyano-3,4-dihydroxytetrahydrofuran-2-yl)methoxy)carbonyl)oxy)hexanoic acid] | > 50 µM | < 0.3 | – | > 50 µM | > 50000 nM | 783 min | 1322.1 | 0.04 | 0.12 | –
N#C[C@@]1(c2ccc3c(N)ncnn23)O[C@H](COC(=O)OCCCC(=O)O)[C@@H](O)[C@H]1O [Compound 141, 4-(((((2R,3S,4R,5R)-5-(4-aminopyrrolo[2,1-f][1,2,4]triazin-7-yl)-5-cyano-3,4-dihydroxytetrahydrofuran-2-yl)methoxy)carbonyl)oxy)butanoic acid] | > 50 µM | < 0.3 | – | > 50 µM | > 50000 nM | – | 902.37 | 0.05 | 0.08 | 789
N#C[C@@]1(c2ccc3c(N)ncnn23)O[C@H](COC(=O)OCCCCC(=O)O)[C@@H](O)[C@H]1O [Compound 142, 5-(((((2R,3S,4R,5R)-5-(4-aminopyrrolo[2,1-f][1,2,4]triazin-7-yl)-5-cyano-3,4-dihydroxytetrahydrofuran-2-yl)methoxy)carbonyl)oxy)pentanoic acid] | > 50 µM | < 0.3 | – | > 50 µM | > 50000 nM | – | 1584 | 0.02 | 0.07 | 789
N#C[C@@]1(c2ccc3c(N)ncnn23)O[C@H](COC(=O)OCCCCCCC(=O)O)[C@@H](O)[C@H]1O [Compound 143, 7-(((((2R,3S,4R,5R)-5-(4-aminopyrrolo[2,1-f][1,2,4]triazin-7-yl)-5-cyano-3,4-dihydroxytetrahydrofuran-2-yl)methoxy)carbonyl)oxy)heptanoic acid] | > 50 µM | < 0.3 | – | > 50 µM | 35400 nM | – | 800.58 | – | – | 789
CC(C)OC(=O)[C@H](CCOC(=O)OC[C@H]1O[C@@](C#N)(c2ccc3c(N)ncnn23)[C@H](O)[C@@H]1O)N(C)C [Compound 146, isopropyl (2S)-4-[[(2R,3S,4R,5R)-5-(4-aminopyrrolo[2,1-f][1,2,4]triazin-7-yl)-5-cyano-3,4-dihydroxy-tetrahydrofuran-2-yl]methoxycarbonyloxy]-2-(dimethylamino)butanoate] | > 50 µM | 1.5 | – | 8.25 µM | 7680 nM | 174 min | 497.93 | 0.06 | 7.15 | –
